Square brackets hold non-standard residues; d marks the D form. Peptide text beside a SMILES is read from it. d1Nal = N[C@H](Cc1cccc2ccccc12)C(=O)O; dNle = CCCC[C@@H](N)C(=O)O
What was measured:
[1] = tested on: human red blood cells; test: Hemolytic activity; format: cell-based
Description: The percentage of hemolysis at 150 μM was determined for all compounds as previously described. Briefly, two-fold serial dilutions (2.35 to 150 μM) of compounds in PBS were mixed with a 0.5% v/v suspension of fresh human red blood cells (RBC) in the same buffer. After 1 h incubation at 37 °C, plates were centrifuged and aliquots of the supernatants were transferred to clear ELISA plates. Absorbance at 414 nm was determined and normalised with respect to a negative (PBS, 0%) and positive (melittin, 100%) control.

[2] = tested on: E. coli 25922; test: Time-kill kinetics, E. coli; format: cell-based, Escherichia coli; conditions: 5 × MIC, exponentially growing cells 1 × 10^8, E. coli 25922
Description: (§1) The time kill experiments were performed by treating exponentially growing cultures with D2D and compound 5. Overnight cultures grown in MHB-II media, were diluted 1:10.000 to ensure exponentially growing cultures (8–10 generations), before cultures reached 1 × 10^8 CFU approximately OD600 = 0.1. When cultures reached 1 × 10^8 they were split into blood glass tubes containing 3 mL each and then treated with the respective drugs at the concentrations as shown in Figure 3. Sampling was performed at 0, 1, 3, 5 and 24 h, by removing 250 µL culture. Samples were spun down at 4000 G for 5 min and supernatant removed, cells were washed in 1 mL 0.9% NaCl, spun down again, before being suspended in 250 µL 0.9% NaCl. Finally, 10 fold dilution series were prepared in 0.9% NaCl. From these 10 µL were spotted (in triplicate) onto LB agar. CFU were counted after 24 h incubation at 37 °C. Experiments were performed in triplicate from individual colonies. Data analysis was performed using GraphPad prism 5 and plotted as the mean of triplicated with standard deviation.

[3] = tested on: A. baumannii 19606; test: Time-kill kinetics, A. baumannii; format: cell-based, Acinetobacter baumannii; conditions: 5 × MIC, exponentially growing cells 1 × 10^8, A. baumannii 19606
Description: as §1

[4] = tested on: S. aureus 29213; test: Time-kill kinetics, S. aureus; format: cell-based, Staphylococcus aureus; conditions: for reduction in viable cells: 5 × MIC, exponentially growing cells 1 × 10^8, S. aureus 29213
Description: as §1

[5] = Peptide self-assembly nanostructure in solution by SAXS; format: physicochemical; conditions: for nanostructure in solution (self-assembly, SAXS model): lab SAXS, 50 mM Tris buffer pH 7.4, 2.5–10 mg/mL, ambient temperature; as to outer radius of hollow nano-tubes: values in Å; as to shell thickness of hollow nano-tubes: values in Å
Description: SAXS experiments of D2D and the alanine-scan (compounds 1–8) were performed using a Bruker NANOSTAR equipped with a microfocus X-ray source (IμS Cu, InCoatec, Germany) and a VÅNTEC-2000 detector. Raw scattering data was calibrated to absolute intensity scale using water as a primary standard and radially averaged in order to obtain the 1D scattered intensity profile as a function of the scattering vector q (q = 4 π sin (θ/2)/λ), where θ is the scattering angle and λ is the X-ray wavelength of 1.54 Å. The samples were dissolved in 50 mM Tris buffer, pH 7.4 (10 mg/mL, 5 mg/mL and 2.5 mg/mL) and injected manually into a temperature-controlled quartz cell located in a vacuum chamber and measured for 180 min.
The scattering of the peptide D2D was analysed using a random polymer-like chain model:(1) Ichain(q)=ϕ·Vp·Δρ^2·Pchain(q) where ϕ is the volume fraction of the peptide, Vp is the volume of the polymer, Δρ is the excess scattering length density and Pchain(q) is the form factor of the free peptide chains given by the Debye expression for Gaussian chains:(2) gPchain(q)=2·exp[−(qRg)^2]−1+(qRg)^2/(qRg)^4 where Rg is the radius gyration of the peptide chains.
The scattering for compounds 2 and 7 was analysed using a rectangular sheet like model:(3) Isheet(q)=ϕ·Vp·Δρ^2·Np·Psheet(q)
Under the assumption that the length of the peptide sheets are much greater than the lateral dimension, i.e., c >> a, b, the form factor Psheet(q) is given by (4) Psheet(q)=Fc(q)1/2π∫02πAsheet(q, α)^2dα where the amplitude is given by (5) Asheet(q,α)=sin(qb cos(α)/2)/qb cos(α)/2· sin(qa sin(α)/2) /qa sin(α)/2) and (6) Fc(q)=(2 Si(qc)/(qc)−4 sin^2(qc/2)/(qc)^2 where Si(x)=∫0xt^−1sint dt .
The expression for the absolute scattering intensity, from this structure can be written as:(7) Inanotube(q)=ϕ·P·Vtot·Δρ^2·P(q)L·A(q)cs2·DW(q) where ϕ is the volume fraction of the peptide, P is the aggregation number given by P π(Ro2−Ri2)L/Vp where Vp is the volume of a peptide chain, Ro is the outer radius and Ri is the inner radius of the tubes, and L is the length. A(q)cs2 is given by:(8) A(q)cs2=Ro2A(q,Rc)−Rin2A(q,Ri)/(Ro2−Ri2) where A(q,x)=2J1(q·x)/(q·x) and J1(x) is the first order Bessel function.
The longitudinal form factor P(q)L is given by:(9) P(q)L=2 Si(QL)/QL −4 sin(sin^2(QL/2)/(QL)^2 where L is the length of the nanotubes and Si(x) is the Sine-function.
In addition, we introduced a slight distribution in the inner radius for possible shape fluctuations, and a Debye Waller factor, DW(q) = exp(−q^2 σ^2), describing possible surface roughness of the inner and outer wall.

[6] = Lipid-peptide interaction by synchrotron SAXS; conditions: SAXS fit parameter, fit error < 5%
From the text: For preparation of unilamellar lipid vesicles, synthetic DMPC (1,2-dimyristoyl-sn-glycero-3-phosphocholine), DMPG (1,2-dimyristoyl-sn-glycero-3-phospho-(10-rac-glycerol)), and DMPE-PEG (1,2-dimyristoyl-sn-glycero-3-phosphoethanolamine-N-[methoxy(polyethylene glycol)-2000]) (from Avanti Polar Lipids) were used in the molar ratio 9:7.5:2.5. The lipids were first dissolved in a 1:3 methanol:chloroform solution, and then the organic solvents were removed completely under vacuum using a Heidolph rotary evaporator with a Vacuubrand vacuum pump. The resulting lipid film was hydrated with 50 mM Tris buffer, pH 7.4, for at least one hour at 35 °C. After sonication for 10 min, the lipid dispersions were extruded through a 100 nm pore diameter polycarbonate filter (21 times) using an Avanti mini-extruder fitted with two 1 mL airtight syringes. Immediately before the SAXS experiment, a peptide solution with the adequate concentration for the target lipid:peptide ratio was mixed 1:1 with the lipid solution (1:1) using a micropipette.
SAXS experiments of the peptide-lipid mixes were performed at the automated BM29 bioSAXS beamline at the European Synchrotron Radiation Facility (ESRF) in Grenoble, France. The data was obtained using an energy of 12.5 keV and a detector distance of 2.87 m, covering a q range of about 0.0047 Å^−1 to 0.5 Å^−1. The data set was calibrated to an absolute intensity scale using water as a primary standard. 40 µL samples were run through a capillary using the flow mode of the automated sample changer. SAXS data was collected in ten successive frames of 0.5 s each to monitor radiation damage and the data reduction was done using the standard tool at BM29 [37].
The SAXS results of the lipid-peptide mixes were analysed using the theoretical model described in detail in [29]. In short, the model provides a detailed description of the membrane by dividing into probability functions for each component (lipid sub-units/peptide) across the bilayer.

[7] = tested on: E. coli (ATCC 25922); format: cell-based, Escherichia coli; conditions: broth microdilution, MHB-II, ~5 × 10^5 CFU, 18–20 h at 37 °C, triplicate
Description: (§2) E. coli (ATCC 25922), S. aureus (ATCC 29213), P. aeruginosa (ATCC 27853) and A. baumannii (ATCC 19606).
(§3) Antimicrobial susceptibility testing was performed by broth dilution in MHB-II media using a protocol adapted from, with minor modifications. Briefly, the compounds were prepared in standard stocks of 1 mg/mL in milli-Q H2O. Antimicrobial dilutions were prepared in two times the final concentration (128 µg/mL) of the compounds. Bacterial suspensions were prepared from overnight cultures (MHB-II) by diluting to OD600 = 0.001 (Approximately 1 × 10^6 CFU). An amount of 100 µL MHB-II was transferred to all wells in column 1–9, excluding the antibiotics well (A1–A9). An amount of 200 µL of MHB-II was transferred to all wells in column 10–12. An amount of 200 µL peptide stock was transferred to each well from A1–9. A 2-fold serial dilution from row A–G was obtained by transferring 100 µL from row A to B, and continued until row G. Resulting in final concentration range of peptides: 128, 64, 32, 16, 8, 4, and 2 (µg/mL). Finally, 100 µL bacterial suspension (1 × 10^6 CFU) were added to all wells giving a final bacterial inoculum of approximately 5 × 10^5 colony forming units (CFU). The plates were incubated for 18–20 h at 37 °C.

[8] = tested on: S. aureus (ATCC 29213); format: cell-based, Staphylococcus aureus; conditions: broth microdilution, MHB-II, ~5 × 10^5 CFU, 18–20 h at 37 °C, triplicate
Description: as §2, §3

[9] = tested on: P. aeruginosa (ATCC 27853); format: cell-based, Pseudomonas aeruginosa; conditions: broth microdilution, MHB-II, ~5 × 10^5 CFU, 18–20 h at 37 °C, triplicate
Description: as §2, §3

[10] = tested on: A. baumannii (ATCC 19606); format: cell-based, Acinetobacter baumannii; conditions: broth microdilution, MHB-II, ~5 × 10^5 CFU, 18–20 h at 37 °C, triplicate
Description: as §2, §3

[11] = tested on: P. aeruginosa 27853; test: Time-kill kinetics, P. aeruginosa; format: cell-based, Pseudomonas aeruginosa; conditions: 5 × MIC, exponentially growing cells 1 × 10^8, P. aeruginosa 27853
Description: as §1

[12] = cited from earlier work
From the text: (§4) In the present study, we investigated all-D-peptides. […] For example, Mana ...

[13] = tested on: S. aureus; conditions: cited from earlier work
From the text: as §4

[14] = SAXS nanotube model fit, 50 mM Tris pH 7.4, 2.5–10 mg/mL
[15] = fraction peptide 1:10 (peptide 5: joint SAXS/SANS fit)

| Molecule | %H (% Hemolysis at 150 µM) ([1]; red cells of human, 1 h, 150) [%] | reduction in number of viable cells [2] | reduction in number of viable cells [3] | reduction in viable cells [4] [log] | reduction in CFU/mL ([4]; S. aureus, concentration not stated (conclusions)) [log] | outer radius of hollow nano-tubes [5, 14] [Å] | shell thickness of hollow nano-tubes [5, 14] [Å] | nanostructure in solution (self-assembly, SAXS model) [5] | ffree peptide ([6]; fraction peptide 1:5) | ffree peptide [6, 15] | ffree peptide ([6]; fraction peptide 1:20) | Minimum Inhibitory Concentration E.C. [7] [µg/mL] | Minimum Inhibitory Concentration S.A. [8] [µg/mL] | Minimum Inhibitory Concentration P.A. [9] [µg/mL] | Minimum Inhibitory Concentration A.B. [10] [µg/mL] | %H (% Hemolysis at 150 µM) ([1]; 150 µM in PBS, 0.5% v/v fresh human RBC, 1 h at 37 °C, absorbance 414 nm, normalised to PBS (0%) and melittin (100%)) [%] | killing of viable cells [11] [log] | activity relative to its L-enantiomer (more active) [12] | antimicrobial activity against S. aureus [13] [µg/mL] |
| --- | --- | --- | --- | --- | --- | --- | --- | --- | --- | --- | --- | --- | --- | --- | --- | --- | --- | --- | --- |
| CCCC[C@@H](NC(=O)[C@@H](CCCCN)NC(=O)[C@@H](Cc1cccc2ccccc12)NC(=O)[C@@H](C)NC(=O)[C@@H](Cc1ccccc1)NC(=O)[C@@H](Cc1cccc2ccccc12)NC(=O)[C@@H](CCCCN)NC(=O)[C@H](N)CCCCN)C(N)=O [Compound 5, kk(1-nal)fa(1-nal)k(nle)-NH2] (H-[dK][dK][d1Nal][dF][dA][d1Nal][dK][dNle]-NH2) | 47 | 4–5 logs | 4–5 logs | 5 | > 3 | 33 | 4 | hollow nano-tubes | 0.4 | 0.5 | 0.5 |  |  |  |  |  |  |  |  |
| CCCC[C@@H](NC(=O)[C@@H](CCCCN)NC(=O)[C@@H](Cc1cccc2ccccc12)NC(=O)[C@@H](CCCCN)NC(=O)[C@H](N)Cc1ccccc1)C(N)=O [Compound 29, fk(1-nal)k(nle)-NH2] (HELM PEPTIDE1{[dF].[dK].[O=C([C@@H](Cc1cccc2ccccc12)N[*:1])[*:2]].[dK].[CCCC[C@@H](N[*:1])C(=O)[*:2]].[am]}$$$$V2.0; N-terminus assumed) |  |  |  |  |  |  |  |  |  |  |  | >128 | >128 | 128 | >128 | 12 |  |  |  |
| CCCC[C@@H](NC(=O)[C@@H](CCCCN)NC(=O)[C@@H](Cc1cccc2ccccc12)NC(=O)[C@@H](CCCCN)NC(=O)[C@@H](Cc1ccccc1)NC(=O)[C@@H](Cc1cccc2ccccc12)NC(=O)[C@@H](CCCCN)NC(=O)[C@H](N)CCCCN)C(N)=O [Compound D2D, kk(1-nal)fk(1-nal)k(nle)-NH2] (H-[dK][dK][d1Nal][dF][dK][d1Nal][dK][dNle]-NH2) | 23 | 4–5 logs | 4–5 logs | 5 |  |  |  | random unstructured polymer-like chains | 0.7 | 0.51 | 0.5 |  |  |  |  |  | 1 | approximately four-fold |  |
| KLKLLLLLKLK-NH2 [sapesin B analog (L-form), literature peptide of Manabe et al] |  |  |  |  |  |  |  |  |  |  |  |  |  |  |  |  |  |  | 16 |

From paper PMC6943423, “Structure-Activity Study of an All-D Antimicrobial Octapeptide D2D” (Molecules, 2019)
